Assay [1] concerns interleukin 2 (IL-2) secretion of peripheral blood mononuclear cells (PBMC). The experiment in a line: Antibody-induced (anti-CD3/anti-CD28) IL-2 secretion in PBMC, ELISA. The class given is cell-based. Particulars: human PBMC, anti-CD3/anti-CD28 stimulation; for IC50: 20 hours, read-out: IC50 (concentration for 50% inhibition of IL-2). The protocol:
The extent to which test substance influence antibody-induced interleukin 2 (IL-2) secretion was investigated in the following test system. IL-2 represents a central cytokine which is produced and released by activated T cells. IL-2 synthesis in the T cells is regulated by a plurality of kinases. An inhibitory effect of substances on kinases leads inter alia to inhibition of IL-2 synthesis and inhibition of the T cell immune response. The cytokine determinations were carried out using an ELISA kit.
Peripheral blood mononuclear cells (PBMC) were isolated from heparinized human whole blood by gradient centrifugation using Histopaque 1077 (Sigma) at room temperature, and the erythrocytes were lyzed hypotonically and, after washing twice in PBS, taken up in cell culture medium (10% fetal inactivated calf serum in RPMI-1640+Glutamax-I [Gibco]).
The 96 well culture plates (Costar) were previously incubated with 100 μl of antibody solution in PBS 0.1 μg/ml in PBS [Gibco]) per well at 4° C. for 18 hours. The antibodies used were anti-CD3 and anti-CD28 monoclonal antibodies (PharMingen). After washing with PBS three times, the plates were charged with 200 μl of the cell suspension (40 000 cells/well). […]
The cultures were incubated in an incubator at 37° C. for 20 hours. After this incubation, the plates were briefly shaken and centrifuged, and […] of supernatant were removed, and the supernatants were then frozen at −20° C.
Interleukin-2 was determined using an ELISA kit (Bioscience), and the absorption of the color change was analyzed in a SpectraMax 340 PC (wavelength 450 nm). Active substances brought about a reduction in the absorption.
A general note: An ELISA detects its analyte on a solid surface through an enzyme-linked reagent.

In assay [2] the target is PKC theta (Homo sapiens, UniProt Q04759). In words: Inhibition of PKC theta. In kind it is biochemical.
Sequence of PKC theta (Q04759 whole entry): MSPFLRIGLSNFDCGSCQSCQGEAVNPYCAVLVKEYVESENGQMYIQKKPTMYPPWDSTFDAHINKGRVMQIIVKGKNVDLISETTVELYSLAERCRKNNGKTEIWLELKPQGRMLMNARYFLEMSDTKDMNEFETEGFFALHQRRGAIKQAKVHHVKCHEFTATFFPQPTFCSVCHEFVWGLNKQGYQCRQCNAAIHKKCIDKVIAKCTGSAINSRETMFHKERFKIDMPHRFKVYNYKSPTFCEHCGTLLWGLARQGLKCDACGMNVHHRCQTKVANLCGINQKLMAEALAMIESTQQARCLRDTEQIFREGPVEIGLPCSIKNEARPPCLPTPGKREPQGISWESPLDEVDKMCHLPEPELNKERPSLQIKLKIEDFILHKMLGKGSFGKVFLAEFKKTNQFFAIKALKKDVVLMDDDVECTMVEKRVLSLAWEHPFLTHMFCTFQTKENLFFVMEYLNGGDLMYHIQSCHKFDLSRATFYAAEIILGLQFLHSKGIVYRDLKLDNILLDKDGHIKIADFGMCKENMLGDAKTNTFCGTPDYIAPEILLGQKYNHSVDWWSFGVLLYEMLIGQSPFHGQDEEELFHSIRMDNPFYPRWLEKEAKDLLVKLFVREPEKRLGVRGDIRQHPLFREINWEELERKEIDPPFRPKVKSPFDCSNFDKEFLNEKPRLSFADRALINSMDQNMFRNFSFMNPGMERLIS

Some results are limits rather than exact numbers.

Consider `CCN(CC)CCCC(C)Nc1ccc2ncc(-c3cccc(Cl)c3)n2n1` (stereo not drawn) [KE1322-022-a], for which the IC50 was found to be 290 nM in assay [1] and 220 nM in assay [2].

Consider `Cc1[nH]ncc1CCCNc1ccc2ncc(-c3ccccc3)n2n1` [KE1322-006-a], for which the IC50 was 2000 nM in assay [1] and 11300 nM in assay [2].

As for `Clc1cccc(-c2cnc3ccc(NCCCN4CCOCC4)nn23)c1` [OP 3074], the inhibition (usually the drop in the measured response relative to a control, in per cent) at 10 µM in assay [1] was above 95%. Besides, the values for the IC50 in assay [1] and in assay [2] were 920 nM and 410 nM, respectively.

Turning to `Clc1cccc(-c2cnc3ccc(NCCN4CCCC4)nn23)c1` [KE1322-024-a], the IC50 in assay [1] stood at 1000 nM; in assay [2], 1700 nM.

On to `c1ccc(-c2cnc3ccc(NCCCN4CCOCC4)nn23)cc1` [OP 3071], for which, in assay [1], the inhibition at 10 µM is above 95% and the IC50 was determined as 2500 nM. The compound further had an IC50 in assay [2] of 17000 nM.

In the case of `CCN(CC)CCCNc1ccc2ncc(-c3cccc(Cl)c3)n2n1` [KE1322-023-a], the IC50 in assay [1] was found to be 210 nM; in assay [2], 250 nM.

`Cn1cc(-c2cnc3ccc(NCC4CCCCC4)nn23)cn1` [KE1322-028-a]: the IC50 in assay [2] worked out at 7000 nM.

For `c1ccc(-c2cnc3ccc(NCCCn4ccnc4)nn23)cc1` [KE1322-002-a], the figures for the IC50 in assay [1] and in assay [2] were 1700 nM and 12900 nM, respectively.

In the case of `Cc1[nH]ncc1CCCNc1ccc2ncc(-c3ccsc3)n2n1` [KE1322-042-a], the IC50 was 400 nM in assay [1] and 13000 nM in assay [2].

Consider `CCN(CC)CCCC(C)Nc1ccc2ncc(-c3ccccc3)n2n1` (stereo not drawn) [KE1322-010-a], for which the IC50 in assay [1] came to 1100 nM; in assay [2], 5400 nM.

On to `CCN(CC)CCCNc1ccc2ncc(-c3ccccc3)n2n1` [KE1322-011-a], for which the figures for the IC50 in assay [1] and in assay [2] were 2600 nM and 5500 nM, respectively.

With `c1ccc(-c2cnc3ccc(NCCCN4CCCC4)nn23)cc1` [OP 3070], in assay [1], the inhibition at 10 µM was above 95% and the IC50 was 1400 nM. The IC50 in assay [2] is 6100 nM.

Turning to `Clc1cccc(-c2cnc3ccc(NCCCn4ccnc4)nn23)c1` [KE1322-014-a], the IC50 in assay [1] came to 1100 nM; in assay [2], 7200 nM.

`Cc1[nH]ncc1CCCNc1ccc2ncc(-c3cnn(C)c3)n2n1` [KE1322-030-a]: the IC50 in assay [1] was 700 nM; in assay [2] it was 7200 nM.

The compound `Clc1cccc(-c2cnc3ccc(NCCCN4CCCC4)nn23)c1` [OP 3073] displayed an inhibition at 10 µM in assay [1] above 95%. Further, the IC50 came out at 210 nM in assay [1] and 250 nM in assay [2].

Values taken from patent US7750000B2, “Substituted imidazo[1,2b]pyridazines as kinase inhibitors, their preparation and use as medicaments” (Bayer Schering Pharma AG, priority 2005, dated 2010).
